Data reported in patent US20080070924A1 (priority 2003, published 2008).
Where two headings read alike, the source gives them in different places.

What was measured:
[1] = tested on: ricinus oil-induced diarrhea; conditions: in vivo; for effect on ricinus oil-induced diarrhea: sc
[2] = tested on: ricinus oil-induced diarrhea; test: whole plant or invertebrate; conditions: in Meriones unguiculatus, sc, 8 h, read-out: ED50 of the opioid to postpone the ricinus oil-induced diarrhea
[3] = tested on: opioid-induced PCO2 increases; conditions: guinea pig, in vivo
[4] = tested on: acetone-induced lifting behaviour; test: Tolerance in a chronic neuropathic pain model (CCI gerbils, acetone spray test); assay type: in vivo
[5] = tested on: opioid-induced PCO2 increases; conditions: rat, in vivo, sc
morphine-induced emesis = test: Inhibition of morphine-induced emesis in ferrets
charcoal propulsion [6] = tested on: charcoal propulsion; parameters: species or system rats; conditions: rat, in vivo
[7] = tested on: ricinus oil-induced diarrhea; conditions: rat, in vivo
charcoal propulsion [8] = conditions: in vivo
[9] = tested on: opioid-induced PCO2 increases; conditions: in vivo

In the case of `COc1ccc2c3c1O[C@H]1C(=O)CC[C@@]4(O)[C@@H](C2)N(C)CC[C@]314` [Oxycodone, oxycodone], the “effect on ricinus oil-induced diarrhea” value [1] is reported as “dose-dependent inhibition” and the ED50 [2] is reported as 5.02 mg/kg.

For `CN1CC[C@]23c4c5ccc(O)c4O[C@H]2[C@@H](O)C=C[C@H]3[C@H]1C5` [Morphine, morphine], the “effect on ricinus oil-induced diarrhea” value [1] was “dose-dependent inhibition”, the PCO2 after opioid ([3]; sc) was “increase in PCO2” and the “acetone-induced lifting behaviour, acute effect” value ([4]; 2.5 mg/kg i.p. twice daily) was “acutely reduced”. For the same molecule, the “acetone-induced lifting behaviour at day 7” value ([4]; 2.5 mg/kg i.p. twice daily, reductions of activity from the second day onwards) was “no differences with the controls”, the PCO2 after opioid [5] was “increased levels of PCO2” and the “doses causing central side-effects” value (morphine-induced emesis; i.p.) was > 0.8 mg/kg. For the same molecule, the “emesis on increasing the dose from 0.4 to 0.8 mg/kg” value (morphine-induced emesis; i.p.) was “more animals with emesis and increased frequencies of periods of emesis, retches and vomiting”, the “charcoal test result in rats compared with gerbils” value (charcoal propulsion [6]) was “comparable results” and the “effect on ricinus oil-induced diarrhea” value ([7]; sc) was “dose-dependent inhibition”. For the same molecule, the ED50 [2] was 0.72 mg/kg.

“(+)-(B)-trans-4-[1-[3,5-bis(trifluoromethyl)benzoyl]-2-(phenylmethyl)-4-piperidinyl]-N-(2,6-dimethylphenyl)-1-piperazine acetamide (L)-malic acid (1:1) [Compound 95]” was tested, and the “effect of adding to the opioids on their ED50s” value [1] was “did not alter the ED50s of the opioids”, the “effects on constipation, given alone” value [1] was “minimal effects” and the “effect on PCO2, given alone” value [3] was “did not affect PCO2 values”. For the same molecule, the “effect on opioid-induced PCO2 levels” value [3] was “reductions in the opioid-induced PCO2 levels”, the “acetone-induced lifting behaviour, given alone” value ([4]; 2.5 mg/kg i.p. twice daily, 11 days, during some days of the experiment) was “limited activity” and the “activity over the testing period, combination with morphine” value ([4]; 2.5 mg/kg morphine with 2.5 mg/kg Compound 95 i.p. twice daily, 11 days) was “the activity remained present over the entire testing period”. The “effect on PCO2, given alone” value ([5]; 40 mg/kg) was “did not affect the PCO2 levels”, the “effect on opioid-induced increases in PCO2” value ([5]; 40 mg/kg) was “some attenuation” and the “number of animals reaching high (>50 mm Hg) levels of PCO2” value ([5]; 40 mg/kg) was “especially reduced”. The “frequency of retches, vomiting and periods of emesis” value (morphine-induced emesis; at 0.4 mg/kg morphine) was “non-significant tendency”, the “number (frequency) of vomits” value (morphine-induced emesis; at 0.8 mg/kg morphine, 10 mg/kg Compound 95 i.p.) was “diminished significantly” and the number of retches (morphine-induced emesis; at 0.8 mg/kg morphine, 10 and 40 mg/kg i.p. Compound 95) was “significantly reduced”. The “effect of adding to the opioids on charcoal propulsion” value (charcoal propulsion [8]) was “did not affect the outcome of the opioids”, the “effect on charcoal propulsion, given alone” value (charcoal propulsion [8]) was “inactive” and the “charcoal test result in rats compared with gerbils” value (charcoal propulsion [6]) was “comparable results”. For the same molecule, the “effect of adding to the opioids on their ED50s” value [7] was “did not alter the ED50s of the opioids”, the “effects on constipation, given alone” value [7] was “minimal effects” and the “effect on PCO2, given alone” value [9] was “no effects were observed”. The “effect on opioid-induced PCO2 levels” value [9] was “significant decreases”.

`COc1ccc2c3c1O[C@H]1[C@@H](O)C=C[C@H]4[C@@H](C2)N(C)CC[C@@]341` [Codeine, codeine] was tested, and the “effect on ricinus oil-induced diarrhea” value [1] was “dose-dependent inhibition”.
